# Assay results as given in patent US4950669A, “Methods and compositions for promoting growth of animals” (priority 1987, dated 1990).
# Where a SMILES comes first, the peptide text is derived from it.
# How the values were obtained:
# [1] = 44-day floor pen study in chickens (Example XIV); format: in vivo; settings: feed 30 g/ton
# Method: A 44-day floor pen study was conducted in which n-morpholinyl-β-benzoyl-propionamide was administered in chicken feed at concentrations of 1 ppm, 2.5 ppm, 5 ppm, 10 ppm, 20 ppm, 40 ppm and 60 ppm. One group of controls received no medication in its feed, while a second control group received Bacitracin MD in its feed at 30 g/ton. Birds were fed ad libitum. There were 5 replications per treatment, 50 birds per replication. Birds were weighed to determine weight gain and feed-to-gain ration after 35 days and 44 days.
# [2] = 44-day floor-pen study in chickens (Example XV); format: in vivo; settings: feed 30 g/ton, 44 days
# Text: There were 60 chickens per replication, 3 replications per treatment. One group of controls was unmedicated, while a second control group received Bacitracin in the feed at 30 g/ton.
# [3] = 28-day chicken growth study, feed or i.m. injection (Example XII); format: in vivo, chickens; settings: feed 30 g/ton
# Method: Portions of N-morpholinyl-β-benzoyl-propionamide were admixed with chicken feed at 1 mg/kg and a 2 mg/kg, respectively. Another portion was formulated into an injectable formulation at a concentration of 2% in polyethylene glycol. The N-morpholinyl-β-benzoylpropionamide was then administered to chickens, either by i.m. injection or in feed, over 28-day period. One group of controls received no medication, while another group of controls received Bacitracin MD in its feed at 30 g/ton. Those chickens receiving intramuscular injections were injected once a week with a dosage of either 1 mg/kg or 2 mg/kg, based on body weight. Birds were weighed on days 0, 14 and 28.
# [4] = 21-day battery study in chickens (Example XIII); format: in vivo; settings: feed 30 g/ton
# Method: N-morpholinyl-β-benzoyl-propionamide was admixed with chicken feed at concentrations of 1.0 ppm, 7.5 ppm and 15 ppm. A 21-day battery study was conducted with the NMBP-containing feed. One group of controls was unmedicated, while a second control group received Bacitracin MD in its feed at 30 g/ton. The birds were fed ad libitum and weighed on days 7, 14 and 21. There were 10 birds per replication, 4 replications in controls and 2 replications per drug treatment.
structure (smiles),measurement,setting,value
"CC[C@H](C)[C@H](N)C1=N[C@H](C(=O)N[C@@H](CC(C)C)C(=O)N[C@H](CCC(=O)O)C(=O)N[C@H](C(=O)N[C@H]2CCCCNC(=O)[C@H](CC(N)=O)NC(=O)[C@@H](CC(=O)O)NC(=O)[C@H](Cc3cnc[nH]3)NC(=O)[C@@H](Cc3ccccc3)NC(=O)[C@H]([C@@H](C)CC)NC(=O)[C@@H](CCCN)NC2=O)[C@@H](C)CC)CS1 [Bacitracin MD, reference compound] (HELM PEPTIDE1{[CC[C@H](C)[C@H](N)C1=N[C@H](C(=O)[*:2])CS1].L.[dE].I.K.[NCCC[C@@H](N[*:1])C(=O)[*:2]].I.[dF].H.[dD].N}$PEPTIDE1,PEPTIDE1,5:R3-11:R2$$$V2.0)",F/G,[1]; Day 35,1.59
same,Weight Gain,[1]; Day 35,1376 g
same,F/G,[1]; Day 44,1.72
same,Weight Gain,[1]; Day 44,1909 g
same,growth results in words,[1]; house cleaned and disinfected just prior to study,lack of positive results
same,Average Live Bird Weight,[2],2.11 kg
same,Feed Conversion,[2],1.75
same,Average Weight,[3]; Day 0 (baseline),98.6 g
same,Average Weight,[3]; Day 14,475.6 g
same,Feed Conversion,[3]; Day 14,1.37
same,Weight Gain,[3]; Day 14,377.0 g
same,Average Weight,[3]; Day 28,1026.9 g
same,Feed Conversion,[3]; Day 28,1.58
same,Weight Gain,[3]; Day 28,928.3 g
same,F/G,[4]; Day 7,1.37
same,Weight Gain,[4]; Day 7,337 g
same,F/G,[4]; Day 14,1.47
same,Weight Gain,[4]; Day 14,707 g
same,F/G,[4]; Day 21,1.58
same,Weight Gain,[4]; Day 21,1155 g
